In patent publication US20210000783A1, “USE OF EXTRACT OF VEGETATION WATERS FOR TREATING DAMAGE TO THE CARDIOVASCULAR SYSTEM” (FATTORIA LA VIALLA DI GIANNI, ANTONIO E BANDINO LO FRANCO - …, priority 2017, published 2021):

Tested on: zebrafish (Danio rerio) embryos
Assay: Heart rate of zebrafish embryos with doxorubicin-induced cardiotoxicity
Assay type: in vivo
Settings: doxorubicin alone 3 μg/ml
Description: (§1) The embryos were treated with the polyphenol concentrate of the present invention (sample A009), at the dilutions 1:100 and 1:500, alone or in association with Doxorubicin (3 μg/mL). A pre-treatment was performed with A009, followed by administration of Doxorubicin and A009+Doxorubicin co-treatment. NT=not-treated cells. ^∘∘∘=p<0.0001 with respect to not-treated embryos; ***=p<0.001 with respect to embryos treated with doxorubicin alone;
as §1, with “alone.” for “alone;”
To evaluate the cardioprotective effect of the polyphenol concentrate of the invention, the zebrafish was used in vivo as the animal model to study. In particular the experiments were performed on zebrafish (Danio rerio) embryos incubated for 24, 48 and 72 hours after fertilization. […]

COc1cccc2c1C(=O)c1c(O)c3c(c(O)c1C2=O)C[C@@](O)(C(=O)CO)C[C@@H]3O[C@H]1C[C@H](N)[C@H](O)[C@H](C)O1 [doxorubicin]
heart rate of zebrafish embryos (48 hours, FIG. 2): significantly reduces their heart rate | heart rate of zebrafish embryos (72 hours, FIG. 3): significantly reduces their heart rate
